Measurements reported in the NIST ThermoML archive (doi:10.1016/j.fluid.2010.07.009).
Numbers after ± are expanded uncertainties.

What was measured:
[1] = xn = mol fraction of the nth substance listed; settings: Fluid (supercritical or subcritical phases), coriolis meter
[2] = Fluid (supercritical or subcritical phases), coriolis meter

COC [dimethyl ether] + O=C=O
[1]
Settings | mass density [kg/m3]
288.5 K, 4100 kPa, x1 = 1 | 684 ± 1
288.6 K, 5100 kPa, x1 = 1 | 686 ± 14
288.8 K, 6100 kPa, x1 = 1 | 688 ± 1
289 K, 7200 kPa, x1 = 1 | 690 ± 2
289.1 K, 8200 kPa, x1 = 1 | 691 ± 1
289.1 K, 9200 kPa, x1 = 1 | 693 ± 1
289.3 K, 10000 kPa, x1 = 1 | 694 ± 1
289.3 K, 15000 kPa, x1 = 1 | 703 ± 1
289.3 K, 20000 kPa, x1 = 1 | 711 ± 1
289.4 K, 25000 kPa, x1 = 1 | 718 ± 2
289.5 K, 30000 kPa, x1 = 1 | 725 ± 2
290.2 K, 4100 kPa, x1 = 0.251 | 806 ± 1
290.7 K, 30100 kPa, x1 = 0.251 | 908 ± 2
291.8 K, 25200 kPa, x1 = 0.251 | 892 ± 1
291.9 K, 10100 kPa, x1 = 0.251 | 834 ± 2
291.9 K, 15200 kPa, x1 = 0.251 | 857 ± 1
291.9 K, 20200 kPa, x1 = 0.251 | 875 ± 1
292 K, 8100 kPa, x1 = 0.251 | 824 ± 2
292 K, 9200 kPa, x1 = 0.251 | 829 ± 2
292.1 K, 6100 kPa, x1 = 0.251 | 811 ± 2
292.1 K, 7100 kPa, x1 = 0.251 | 817 ± 2
292.2 K, 5100 kPa, x1 = 0.251 | 805 ± 6
292.5 K, 4000 kPa, x1 = 0.458 | 769 ± 1
292.5 K, 5200 kPa, x1 = 0.458 | 773 ± 1
292.6 K, 6100 kPa, x1 = 0.458 | 776 ± 1
292.7 K, 7100 kPa, x1 = 0.458 | 780 ± 1
292.8 K, 8200 kPa, x1 = 0.458 | 783 ± 1
293 K, 9200 kPa, x1 = 0.458 | 786 ± 15
293.1 K, 10200 kPa, x1 = 0.458 | 789 ± 1
293.2 K, 15200 kPa, x1 = 0.458 | 804 ± 1
293.4 K, 20200 kPa, x1 = 0.458 | 817 ± 1
293.5 K, 25300 kPa, x1 = 0.458 | 830 ± 1
293.7 K, 29300 kPa, x1 = 0.458 | 839 ± 1
293.7 K, 30000 kPa, x1 = 0.458 | 840 ± 1

O=C=O [carbon dioxide] + COC
[1], x2 = 0
Settings | mass density [kg/m3]
291.3 K, 6100 kPa | 817 ± 4
291.5 K, 7100 kPa | 834 ± 11
291.7 K, 8100 kPa | 849 ± 14
291.9 K, 9200 kPa | 861 ± 3
292 K, 10200 kPa | 872 ± 5
292.1 K, 15200 kPa | 916 ± 8
292.1 K, 20200 kPa | 948 ± 12
292.1 K, 25300 kPa | 975 ± 2
292.1 K, 30100 kPa | 997 ± 2

O=C=O [carbon dioxide]
[2]
Settings | mass density [kg/m3]
291.3 K, 6100 kPa | 817 ± 9
291.5 K, 7100 kPa | 834 ± 14
291.7 K, 8100 kPa | 849 ± 17
291.9 K, 9200 kPa | 861 ± 9
292 K, 10200 kPa | 872 ± 10
292.1 K, 15200 kPa | 916 ± 12
292.1 K, 20200 kPa | 948 ± 15
292.1 K, 25300 kPa | 975 ± 10
292.1 K, 30100 kPa | 997 ± 10

COC [dimethyl ether]
[2]
Settings | mass density [kg/m3]
288.5 K, 4100 kPa | 684 ± 7
288.6 K, 5100 kPa | 686 ± 16
288.8 K, 6100 kPa | 688 ± 7
289 K, 7200 kPa | 690 ± 7
289.1 K, 8200 kPa | 691 ± 7
289.1 K, 9200 kPa | 693 ± 7
289.3 K, 10000 kPa | 694 ± 7
289.3 K, 15000 kPa | 703 ± 7
289.3 K, 20000 kPa | 711 ± 7
289.4 K, 25000 kPa | 718 ± 7
289.5 K, 30000 kPa | 725 ± 8
